Reference: patent US9133204B2, “5-membered heterocyclic amides and related compounds” (H. Lundbeck A/S, priority 2007, dated 2015)

Target: T1, P2X7 receptor (Homo sapiens, UniProt Q99572)
T1 construct: host or cells: SH-SY5Y
T1 sequence (Q99572 1-595): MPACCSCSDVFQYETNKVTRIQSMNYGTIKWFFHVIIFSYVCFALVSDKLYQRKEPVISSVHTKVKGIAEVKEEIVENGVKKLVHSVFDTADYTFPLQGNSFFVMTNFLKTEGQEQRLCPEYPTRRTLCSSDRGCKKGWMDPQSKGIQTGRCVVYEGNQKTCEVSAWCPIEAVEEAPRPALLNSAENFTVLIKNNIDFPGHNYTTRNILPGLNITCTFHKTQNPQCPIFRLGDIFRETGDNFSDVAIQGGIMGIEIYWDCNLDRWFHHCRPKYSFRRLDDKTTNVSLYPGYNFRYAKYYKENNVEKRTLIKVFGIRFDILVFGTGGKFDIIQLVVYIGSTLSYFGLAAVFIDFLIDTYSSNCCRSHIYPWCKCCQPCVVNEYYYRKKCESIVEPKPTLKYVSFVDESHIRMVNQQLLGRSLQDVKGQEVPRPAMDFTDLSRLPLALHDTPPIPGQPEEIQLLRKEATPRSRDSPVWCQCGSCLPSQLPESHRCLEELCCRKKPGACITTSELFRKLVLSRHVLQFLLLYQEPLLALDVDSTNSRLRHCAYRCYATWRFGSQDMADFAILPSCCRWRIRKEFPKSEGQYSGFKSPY
Experiment: High throughput P2X7 calcium mobilization assay (Example 4A)
Assay type: cell-based
Conditions: SH-SY5Y cells; 50% decrease in fluorescence response of cells exposed to 80 μM BzATP; Table I
Procedure, shortened: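 SH-SY5Y cells loaded with 2.3 μM Fluo-4 AM for 1 h at 37 °C, then preincubated 1 h at room temperature with test compound (final 1–2500 nM) in low-sodium sucrose buffer, pH 7.4. Antagonism measured against 80 μM BzATP (about EC50) as peak FLIPR calcium fluorescence over 2 min, corrected by no-agonist background.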

Row | Compound | IC50
1 | CC(C)n1cc(C2(CNC(=O)c3sc(-c4ncccn4)nc3C(F)(F)F)CCCCC2)cn1 [Compound 297, N-{[1-(1-isopropyl-1H-pyrazol-4-yl)cyclohexyl]methyl}-2-pyrimidin-2-yl-4-(trifluoromethyl)-1,3-thiazole-5-carboxamide] | ≤ 2 µM
2 | CCc1nc(-c2ncccn2)sc1C(=O)NCC1(c2ccc(Cl)nc2)CCCCC1 [Compound 298, N-{[1-(6-chloropyridin-3-yl)cyclohexyl]methyl}-4-ethyl-2-pyrimidin-2-yl-1,3-thiazole-5-carboxamide] | ≤ 2 µM
3 | CCc1nc(-c2ncccn2)sc1C(=O)NCC(CC(C)C)c1ccc(Cl)nc1 (stereo not shown) [Compound 299, N-[2-(6-chloropyridin-3-yl)-4-methylpentyl]-4-ethyl-2-pyrimidin-2-yl-1,3-thiazole-5-carboxamide] | ≤ 2 µM
4 | O=C(NCC1(c2cccnc2)CCCCC1)c1sc(N2CCNCC2)nc1C(F)(F)F [Compound 300, 2-piperazin-1-yl-N-[(1-pyridin-3-ylcyclohexyl)methyl]-4-(trifluoromethyl)-1,3-thiazole-5-carboxamide] | ≤ 2 µM
5 | CC(C)(C)OC(=O)NC1CCN(c2nc(C(F)(F)F)c(C(=O)NCC3(c4cccnc4)CCCCC3)s2)CC1 [Compound 301, tert-butyl {1-[5-{[(1-pyridin-3-ylcyclohexyl)methyl]carbamoyl}-4-(trifluoromethyl)-1,3-thiazol-2-yl]piperidin-4-yl}carbamate] | ≤ 2 µM
6 | O=C(NCC1(c2cccnc2)CCCCC1)c1sc(N2CCC(N3CCCC3)CC2)nc1C(F)(F)F [Compound 302, N-[(1-pyridin-3-ylcyclohexyl)methyl]-2-(4-pyrrolidin-1-ylpiperidin-1-yl)-4-(trifluoromethyl)-1,3-thiazole-5-carboxamide] | ≤ 2 µM
7 | NC1CCN(c2nc(C(F)(F)F)c(C(=O)NCC3(c4cccnc4)CCCCC3)s2)CC1 [Compound 303, 2-(4-aminopiperidin-1-yl)-N-[(1-pyridin-3-ylcyclohexyl)methyl]-4-(trifluoromethyl)-1,3-thiazole-5-carboxamide] | ≤ 2 µM
8 | CC(C)CC(CNC(=O)c1sc(-c2ncccn2)nc1C(F)(F)F)c1ccc(C(F)(F)F)nc1 (stereo not shown) [Compound 304, N-{4-methyl-2-[6-(trifluoromethyl)pyridin-3-yl]pentyl}-2-pyrimidin-2-yl-4-(trifluoromethyl)-1,3-thiazole-5-carboxamide] | ≤ 2 µM
9 | CCc1nc(-c2ncccn2)sc1C(=O)NCC(CC(C)C)c1ccc(C(F)(F)F)nc1 (stereo not shown) [Compound 305, 4-ethyl-N-{4-methyl-2-[6-(trifluoromethyl)pyridin-3-yl]pentyl}-2-pyrimidin-2-yl-1,3-thiazole-5-carboxamide] | ≤ 2 µM
10 | Cc1nc(-c2ncccn2)sc1C(=O)NCC(CC(C)C)c1ccc(C(F)(F)F)nc1 (stereo not shown) [Compound 306, 4-methyl-N-{4-methyl-2-[6-(trifluoromethyl)pyridin-3-yl]pentyl}-2-pyrimidin-2-yl-1,3-thiazole-5-carboxamide] | ≤ 2 µM
11 | O=C(NCC1(c2cccnc2)CCCCC1)c1sc(-n2ncccc2=O)nc1C(F)(F)F [Compound 307, 2-(6-oxopyridazin-1(6H)-yl)-N-[(1-pyridin-3-ylcyclohexyl)methyl]-4-(trifluoromethyl)-1,3-thiazole-5-carboxamide] | ≤ 2 µM
12 | O=C(NCC1(c2cccnc2)CCCCC1)c1sc(-n2ccnn2)nc1C(F)(F)F [Compound 308, N-[(1-pyridin-3-ylcyclohexyl)methyl]-2-(1H-1,2,3-triazol-1-yl)-4-(trifluoromethyl)-1,3-thiazole-5-carboxamide] | ≤ 2 µM
13 | O=C(NCC1(c2cccnc2)CCCCC1)c1sc(-n2nccn2)nc1C(F)(F)F [Compound 309, N-[(1-pyridin-3-ylcyclohexyl)methyl]-2-(2H-1,2,3-triazol-2-yl)-4-(trifluoromethyl)-1,3-thiazole-5-carboxamide] | ≤ 2 µM
14 | O=C(NCC1(c2cccnc2)CCCCC1)c1sc(-n2cncn2)nc1C(F)(F)F [Compound 310, N-[(1-pyridin-3-ylcyclohexyl)methyl]-2-(1H-1,2,4-triazol-1-yl)-4-(trifluoromethyl)-1,3-thiazole-5-carboxamide] | ≤ 2 µM
15 | Cc1nc(-c2cccnc2)sc1C(=O)NCC1(c2cccnc2)CCCCC1 [Compound 311, 4-methyl-2-pyridin-3-yl-N-[(1-pyridin-3-ylcyclohexyl)methyl]-1,3-thiazole-5-carboxamide] | ≤ 2 µM
16 | CN1CCN(C2(CNC(=O)c3sc(-c4ncccn4)nc3C(F)(F)F)CCCCC2)CC1 [Compound 312, N-{[1-(4-methylpiperazin-1-yl)cyclohexyl]methyl}-2-pyrimidin-2-yl-4-(trifluoromethyl)-1,3-thiazole-5-carboxamide] | ≤ 2 µM
17 | O=C(NCC1(N2CCNCC2)CCCCC1)c1sc(-c2ncccn2)nc1C(F)(F)F [Compound 313, N-[(1-piperazin-1-ylcyclohexyl)methyl]-2-pyrimidin-2-yl-4-(trifluoromethyl)-1,3-thiazole-5-carboxamide] | ≤ 2 µM
18 | O=C(NCC(c1ccc(Cl)cc1)N1CCOCC1)c1sc(-c2ncccn2)nc1C(F)(F)F (stereo not shown) [Compound 314, N-[2-(4-chlorophenyl)-2-morpholin-4-ylethyl]-2-pyrimidin-2-yl-4-(trifluoromethyl)-1,3-thiazole-5-carboxamide] | ≤ 2 µM
19 | CCc1nc(-c2ncccn2)sc1C(=O)NCC(c1ccc(C(F)(F)F)cc1)N(C)C(C)C (stereo not shown) [Compound 315, 4-ethyl-N-{2-[isopropyl(methyl)amino]-2-[4-(trifluoromethyl)phenyl]ethyl}-2-pyrimidin-2-yl-1,3-thiazole-5-carboxamide] | ≤ 2 µM
20 | O=C(NCC1(c2cccnc2)CCCCC1)c1sc(-c2cnccn2)nc1C(F)(F)F [Compound 316, 2-pyrazin-2-yl-N-[(1-pyridin-3-ylcyclohexyl)methyl]-4-(trifluoromethyl)-1,3-thiazole-5-carboxamide] | ≤ 2 µM
21 | O=C(NCC1(c2cccnc2)CCCCC1)c1sc(-c2nccs2)nc1C(F)(F)F [Compound 317, N-[(1-pyridin-3-ylcyclohexyl)methyl]-4-(trifluoromethyl)-2,2′-bi-1,3-thiazole-5-carboxamide] | ≤ 2 µM
22 | O=C(NCC1(c2cccnc2)CCCCC1)c1sc(-c2ccc3[nH]ccc3c2)nc1C(F)(F)F [Compound 318, 2-(1H-indol-5-yl)-N-[(1-pyridin-3-ylcyclohexyl)methyl]-4-(trifluoromethyl)-1,3-thiazole-5-carboxamide] | ≤ 2 µM
23 | O=C(NCC1(c2cccnc2)CCCCC1)c1sc(-c2cccc3cccnc23)nc1C(F)(F)F [Compound 319, N-[(1-pyridin-3-ylcyclohexyl)methyl]-2-quinolin-8-yl-4-(trifluoromethyl)-1,3-thiazole-5-carboxamide] | ≤ 2 µM
24 | CC(C)CC(CNC(=O)c1sc(-c2ncccn2)nc1C(F)(F)F)c1cccnc1 (stereo not shown) [Compound 320, N-(4-methyl-2-pyridin-3-ylpentyl)-2-pyrimidin-2-yl-4-(trifluoromethyl)-1,3-thiazole-5-carboxamide] | ≤ 2 µM
25 | O=C(NCC1(c2cccnc2)CCCCC1)c1sc(-c2ccccn2)nc1C(F)(F)F [Compound 321, 2-pyridin-2-yl-N-[(1-pyridin-3-ylcyclohexyl)methyl]-4-(trifluoromethyl)-1,3-thiazole-5-carboxamide] | ≤ 2 µM
